Experimental data: PMC2962730 (Journal of neurochemistry, 2010)
Substitutions are numbered along the chain they refer to.

What was measured:
hVAChT wild-type = target: T1, hVAChT wild-type (Homo sapiens, UniProt Q16572); test: [3H]ACh transport; format: biochemical; conditions: WT hVAChT, pH 7.4
T1 sequence (Q16572 1-532): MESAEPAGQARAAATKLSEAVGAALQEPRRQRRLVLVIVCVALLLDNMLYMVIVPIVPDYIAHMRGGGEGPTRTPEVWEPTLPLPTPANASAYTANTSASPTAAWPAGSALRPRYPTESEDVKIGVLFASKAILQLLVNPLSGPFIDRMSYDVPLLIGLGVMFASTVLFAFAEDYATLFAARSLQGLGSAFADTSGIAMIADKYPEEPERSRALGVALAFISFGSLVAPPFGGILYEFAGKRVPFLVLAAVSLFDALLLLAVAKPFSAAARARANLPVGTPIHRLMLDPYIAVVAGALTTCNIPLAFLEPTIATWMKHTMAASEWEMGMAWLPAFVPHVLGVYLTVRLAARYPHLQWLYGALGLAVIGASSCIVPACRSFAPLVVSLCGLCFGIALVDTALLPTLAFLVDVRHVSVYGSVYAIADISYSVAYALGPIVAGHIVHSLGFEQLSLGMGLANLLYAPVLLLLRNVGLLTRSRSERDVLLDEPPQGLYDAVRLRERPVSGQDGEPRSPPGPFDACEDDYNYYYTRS

hVAChT M320A [1] = target: T2, hVAChT M320A (Homo sapiens, UniProt Q16572, M320A); test: ACh equilibrium binding by competition against [3H]vesamicol
T2 sequence (Q16572 1-532 M320A): T1 sequence (Q16572 1-532) with M320A

hVAChT W325H = target: T3, hVAChT W325H (Homo sapiens, UniProt Q16572, W325H); test: as above
T3 sequence (Q16572 1-532 W325H): T1 sequence (Q16572 1-532) with W325H

hVAChT W331L = target: T4, hVAChT W331L (Homo sapiens, UniProt Q16572, W331L); test: [3H]ACh transport; format: biochemical
T4 sequence (Q16572 1-532 W331L): T1 sequence (Q16572 1-532) with W331L

[2] = system: rat VAChT (rVAChT) W331 mutants; conditions: mutations of W331 in rVAChT; ref Ojeda et al. 2004; cited from earlier work
hVAChT M320A [3] = target: T2, hVAChT M320A; test: [3H]vesamicol saturation binding; conditions: pH 7.4
VAChT F335A = conditions: ref Ojeda et al. (2004); cited from earlier work
VAChT C391Y = conditions: ref Zhu et al. (2001); cited from earlier work

Structure (SMILES)	Vmax/Bmax, ACh transport normalized to Bmax (hVAChT wild-type)	Km (hVAChT wild-type; read-out: KM, Michaelis-Menten constant for ACh transport)	Kd (hVAChT M320A [1])	FHA, fraction of the ACh sites that have high affinity (hVAChT M320A [1]; M320A hVAChT, pH 7.4)	Kd (hVAChT W325H)	FHA, fraction of the ACh sites that have high affinity (hVAChT W325H; W325H hVAChT, pH 7.4)	Vmax/Bmax, ACh transport normalized to Bmax (hVAChT W331L; pH 7.4)	Km (hVAChT W331L; read-out: KM, Michaelis-Menten constant for ACh transport, pH 7.4)	decrease in ACh affinity (equilibrium) [2]	Bmax, maximal specific [3H]vesamicol binding (VAChT expression level) (hVAChT M320A [3])	weaker binding of vesamicol (VAChT F335A)	vesamicol binding (VAChT C391Y)
CC(=O)OCC[N+](C)(C)C [ACh, acetylcholine]	6.8 ± 0.5 min⁻¹	950 ± 200 µM	9.2 ± 0.8 mM	0.73 ± 0.11	5.5 ± 0.9 mM	0.82± 0.06	6.2 ± 1.2 min⁻¹	4600 ± 1500 µM	≤ 9 fold	–	–	–
O[C@@H]1CCCC[C@H]1N1CCC(c2ccccc2)CC1 (racemic) [vesamicol, ( )-trans-2-(4-phenylpiperidino)cyclohexanol]	–	–	–	–	–	–	–	–	–	62 ± 5 pmol/mg	~ 3 fold	does not bind vesamicol
